# What was measured:
# [1] = tested on: aortic mitochondrial proteins (SOD2, CypD, NDUFS1); assay: Western blot analysis of mitochondrial acetylation and isoLG adducts in aortas of angiotensin II-infused mice; type: in vivo, mouse
# Description: FIGS. 11A-D show Western blot analysis of mitochondrial acetylation in aortas isolated from Sham and angiotensin II-infused mice treated with mito2HOBA. (A) Typical Western blots isoLG-protein adducts (D11 ab), Sirt3, Acetyl-Lysine, SOD2-K68-Acetylation, CypD Acetylation, isoLG adduct with complex I NDUFS1 75 KDa subunit and mitochondrial complex I; (B) Sirt3 levels; (C) mitochondrial protein lysine acetylation; (D) SOD2-K68-Acetyl levels; and (E) CypD-Acetyl levels. Mice supplied with mito2HOBA (m2H) in drinking water (0.1 g/L) and angiotensin II (osmotic pump, 0.7 mg/kg/day) for 14 days. Data were normalized by Complex I levels (Sham is 100%). Results are mean±SEM (n=5). *P<0.01 vs Sham, **P<0.01 vs angiotensin II (Ang II).
# Dihydroethidium (DHE) and MitoSOX superoxide probes were supplied by Invitrogen (Grand Island, NY). Sirt3 (54905) antibodies were from Cell Signaling. Acetyl-K68-SOD2 (ab137037), complex I NDUFS1 75 kDa subunit (ab22094) and CypD (ab110324) and GAPDH (ab8245) antibodies were from Abcam. SOD2 (sc30080) antibodies were obtained from Santa Cruz Biotechnology. Acetyl-lysine antibodies (ab3839) were provided by Millipore-Sigma. D11, an isoLG-lysyl adducts-specific scFv antibody, has been previously characterized. All antibodies were used at 1000-fold dilution. […] All other reagents were obtained from Sigma (St Louis, MO).
# [2] = tested on: kidney (renal cortex and medulla); assay: Kidney histological analyses in LPS model
# Method: Three months old C57BL/6J mice (25-28 g) were supplemented with mito2HOBA (drinking water, 0.1 g/L) for 72 hours prior to LPS injection (25 μg/g). […] (C) Histopathological scores of renal injuries as described in methods section. […] Data are mean±STD *P<0.01 vs LPS (n=6), *P<0.01 vs LPS (n=10).
# FIGS. 6A-H show histological analysis of cellular injury in kidneys of control, mito2HOBA supplemented, LPS-injected and LPS+mito2HOBA-treated mice. Representative sections from control mice show normal glomeruli (g), proximal tubules (P), and distal tubules (*) in the cortex (A) and medulla (B).
# Kidneys were harvested from mice and placed immediately in 10% formalin. Following fixation, kidneys were washed with saline, placed in 70% ethanol, and processed in the following sequence: 70% ethanol; 80% ethanol; 95% ethanol; 100% ethanol; 100% xylene. Then kidneys were embedded in POLY/Fin paraffin (ThermoFisher). Five-μm sections were cut using a Leitz 1512 microtome and were mounted on glass slides. Sections were stained with hematoxylin and eosin and were viewed using an Olympus IX70 microscope. Images were captured with a Jenoptix Progress C12 digital camera. Histopathological scores of kidneys were measured as follows: (0) No tubular injury; (1) <10% tubules injured; (2) 10-25% tubules injured; (3) 25-50% tubules injured; (4) 50-75% tubules injured; (5) >75% tubules injured.
# [3] = tested on: mitochondrial isoLG-Lysyl-Lactam protein adducts; assay: isoLG-Lysyl-Lactam adducts in kidney mitochondria by LC/MS/MS; type: in vivo, mouse; settings: Ang II-infused mice, mito2HOBA 0.1 g/L
# Description: FIGS. 10A-D show the effect of mito2HOBA on angiotensin II-induced hypertension and accumulation of mitochondrial isoLGs protein adducts. (A) Blood pressure tail-cuff measurements in male Sham or angiotensin II-infused mice supplied with mito2HOBA in drinking water (0.1 g/L) or equimolar amount of untargeted analog 2HOBA (0.17 mmol/L). (B) Telemetry studies of blood pressure in angiotensin II-infused mice supplied with mito2HOBA or plain water as a vehicle. (C) Representative LC/MS/MS chromatograms of isoLG-Lysyl-Lactam adduct; (D) isoLG-Lys-Lactam levels in kidney mitochondria isolated from Sham or angiotensin II-infused mice supplied with mito2HOBA. Results are mean±SEM. *P<0.01 vs Sham, **P<0.01 vs Ang II (n=8).
# C57B1/6J mice were sacrificed by carbon dioxide and kidneys removed, cleaned from fat tissue and placed in the ice-slurry cold isolation medium. […] Mitochondrial protein concentration was measured by Bradford method.
# IsoLG-Lysyl-Lactam adducts were measured in mitochondria isolated from the kidneys of sham or angiotensin II-infused mice using Mass Spectrometry. […] A [^13C6] internal standard was added and the isoLG-lysyl adducts were purified by solid phase extraction and HPLC before being quantified by Liquid Chromatography-tandem Mass Spectrometry assay (LC/ESI/MS/MS) using isotopic dilution as described previously.
# renal ATP = assay: ATP levels in kidney tissue of angiotensin II-infused mice; type: in vivo, mouse; settings: Ang II plus mito2HOBA
# Method: FIGS. 13A-B show mito2HOBA reduces mPTP opening and prevents mitochondrial dysfunc¬tion. C57B1/6J mice were infused with Ang II ([…]) and mito2HOBA in the drinking water (0.1 g/L). Following 14 days of Ang II infusion the animals were sacrificed and kidneys were isolated for mitochondrial studies. Addition of CaCl2 to mitochondria above Ca2+ retention capacity led to mPTP opening and mitochondria swelling. 71 Mitochondria isolated from Ang II-infused mice had significant reduction in Ca2+ capacity due to increased mPTP opening and CypD inhibitor Cyclosporine A (CsA) rescued Ca2+ retention capacity (A). Respiratory control ratio (State 3/State 4) was measured in isolated kidney mitochondria with glutamate and malate (B). Control level is 100%. (C) Renal ATP was measured in freshly isolated tissue by luciferase-based luminescent assay. 72 Results are mean±SEM. *P<0.01 vs Sham, **P<0.01 vs Angiotensin II (n=5).
# ATP concentration in the kidney tissue was measured by luminescent ATP detection assay kit (Abcam; Cat #ab113849). Luminescence signals were read using a Biotek Synergy H1 plate reader. Luminescence units were calculated as μmol/mg protein based on the ATP calibration curve and protein concentration measured by the Bradford method.
# [4] = tested on: LPS-injected C57BL/6J mice; assay: Survival in LPS model of sepsis; type: in vivo, mouse
# Description: All experimental procedures were approved by Vanderbilt and Mercer Institutional Animal Care and Use Committees. The use of LPS is well-established model of bacterial sepsis in rodents (1-3). The concentrations of LPS that can be used to induce sepsis in mice depend on many factors (source of LPS, age/size, and strains of animals, desired time of response, target of interest, etc.) and may vary between different manufactures. To test the protective properties of mito2HOBA, the present inventors used LPS from E. coli O111:B4 (Sigma L8274). […] The same lot of LPS was used throughout entire study.
# [5] = LPS plus mito2HOBA vs LPS alone
compound,measurement,setting,value
NCc1ccc(OCCCC[P+](c2ccccc2)(c2ccccc2)c2ccccc2)cc1O [mito2HOBA],SOD2 acetylation in aortas,"[1]; % compared to control mice, Ang II plus mito2HOBA",147%
same,CypD acetylation in aortas,"[1]; % compared to control, Ang II plus mito2HOBA",156%
same,hyperacetylation of mitochondrial proteins in aortas,"[1]; Ang II 14 days, mito2HOBA 0.1 g/L (Ang II alone 420%)",normalized
same,isoLG-complex I NDUFS1 subunit adduct levels,[1]; Ang II plus mito2HOBA,reduced
same,mitochondrial isoLG adducts in aortic mitochondria,[1]; Ang II plus mito2HOBA,inhibited formation
same,renal cortex injury,[2]; LPS plus mito2HOBA,the cortex appeared normal
same,histopathological scores of renal injuries,[2]; [5],significant reduction in cellular injury
same,renal medulla injury,[2]; [5],the extent and degree of injury was less
same,"kidney histology, mito2HOBA alone",[2]; mice supplemented with mito2HOBA without LPS,appeared normal
same,isoLG-Lysyl-Lactam adducts formation in kidney mitochondria,[3],abolished
same,decrease in renal ATP levels,renal ATP,prevented
same,increase of animal survival,"[4]; 96 hours post-injection of LPS 25 μg/g, mito2HOBA 0.1 g/L drinking water",3 fold
same,reduction of animal immediate and extended mortality,"[4]; LPS model of sepsis, mito2HOBA supplementation",3 fold
